What all share (assay type): cell-based
In experiment [1] the test system is bovine cells. Put plainly: Effects of ginseng, palmitoleic acid and spirulina on total protein content in bovine cells (FIG. 8-10). The text has this:
(§1) Moreover, FIG. 8 depicts a graph showing effects of ginseng on collagen production in various cell types. FIG. 8 has an x-axis 802 associated with a cell type and a ginseng concentration in μg/mL and a […] measuring a collagen concentration 806 and a protein concentration 808.
(§2) Further, FIG. 9 depicts a graph showing effects of palmitoleic acid on collagen production in various cell types. FIG. 9 has an x-axis 902 associated with a cell type and a palmitoleic acid concentration in μg/mL and a y-axis 904 measuring a collagen concentration 906 and a protein concentration 908.
(§3) FIG. 10 depicts a graph showing effects of a spirulina extract on collagen production in various cell types. FIG. 10 has an x-axis 1002 associated with a cell type and a spirulina extract concentration in μg/mL and a y-axis 1004 measuring a collagen concentration 1006 and a protein concentration 1008.
(§4) However, a total protein content is increased in bovine cells.

The test system of experiment [2] is various cell types. Put plainly: Effects of ginseng, palmitoleic acid and spirulina on collagen production in various cell types (FIG. 8-10).
Excerpt: as §1, §2, §3, §4

Experiment [3] has as its system bovine cells. The experiment is described as follows: Collagen production under different concentrations of vitamin C, bovine cells (FIG. 7A, 7B). Particulars: seeding density 40,000 or 70,000 cells/well, 96 well plate. The source says:
(§5) In another example, a collagen detection method using a dual dye assay is described and depicted in FIG. 4. This method measures collagen content of samples using dyes in order to estimate collagen production of adherent cells in cultures without extracting the collagen. Samples may include bovine derma primary fibroblast cell lines or BJ human fibroblast/primary cells, among others not explicitly listed herein. Materials utilized in the method of FIG. 4 include: about 70% ethanol, sterile water, picric acid (or 2,4,6-trinitrophenol), about 0.1% Fast Green FCF solution in saturated picric acid, about 0.4% Fast Green FCF solution and about 0.11% Sirius Red in the saturated picric acid, and about 0.1% NaOH in methanol. The Fast Green FCF dye is used for total protein and the Sirius Red dye is used for collagen content determination. Equipment utilized with the method of FIG. 4 includes a laminar flow cabinet, a spectrophotometer, and a pipette. A process step 406 follows the process step 404 and includes adding a saturated solution of picric acid in distilled water containing a first amount of the Fast Green dye. In examples, the first amount of the Fast Green dye is about 0.01%. […] A process step 420 follows the process step 418 and includes utilizing the spectrophotometer to measure an absorbance at 540 nm and 630 nm. […]

The test system of experiment [4] is porcine cell line. Put plainly: Factor supplementation, Sircol Collagen Assay, commercially available porcine cell line. Conditions: 3-10 days with factor. How it is done: (§6) In this embodiment, cells were seeded at approximately 3500-4500 cells per well of a 48 well-plate and were allowed to settle for about 48 hours before adding the factor. After about 48 hours, spent media was removed and replaced with growth media supplemented with the factor of interest. Cells continued to grow for about 3-10 days following initial introduction of the factor and a collagen content was quantified with a Sircol™ Collagen Assay. Additionally, experiments were conducted with and without media/factor replenishment about every 48-72 hours.

The subject of experiment [5] is human cells. The experiment is described as follows: Collagen production under different concentrations of vitamin C, human cells (FIG. 7C, 7D). Conditions: seeding density 40,000 or 70,000 cells/well, 96 well plate.
Excerpt: as §5

The subject of experiment [6] is human KEL-FIB cell line. The experiment is described as follows: Factor supplementation, Sircol Collagen Assay, human KEL-FIB cell line. Particulars: for collagen production: 3-10 days with factor. Here is the method: as §6
In experiment [7] the test system is bovine cell lines. Put plainly: Factor supplementation, Sircol Collagen Assay, commercially available bovine cell lines. Particulars: for collagen production: commercially available bovine cell lines, 3-10 days with factor. Here is the method: as §6

The values that follow come from patent US20220112267A1, “PRODUCE AND ISOLATE AND/OR EXTRACT COLLAGEN AND/OR GELATIN FROM ANIMAL CELL LINES AND/OR TISSUE EXPLANTS” (Jellatech, Inc., priority 2020, published 2022).

Structures are written as SMILES.

As for `CCCCCC/C=C\CCCCCCCC(=O)O` [palmitoleic acid], in experiment [1], the total protein content entry is “increased”. In addition, in experiment [2], the “effect on collagen production” value is “do not have a large effect”.

For the compound `O=C1O[C@H]([C@@H](O)CO)C(O)=C1O` [vitamin C], the “concentration of vitamin C at which the highest collagen concentration resulted” value in experiment [3] and in experiment [5] was 10 to 100 mg/mL in each case. Moreover, the collagen production result in experiment [4], in experiment [6] and in experiment [7] was “increased” in each case. Further, the “increase of collagen production” value in experiment [6] is reported as “about 50%”; in experiment [7] (bovine cell lines) it was 28-36%.

`O=S(=O)([O-])[O-].[Zn+2]` [zinc sulfate]: the collagen production result in experiment [4], in experiment [6] and in experiment [7] was “increased” throughout.
